The test system of assay [1] is HHQ and PQS quinolone production in P. aeruginosa strain PA14. Nature of the assay: Inhibition of HHQ and PQS quinolone production in P. aeruginosa strain PA14 (LC-MS/MS). In kind it is cell-based, Pseudomonas aeruginosa. The following applies: 1.5 mM, HHQ 8 h, PQS 20 h. Here is the method:
The production of PQS and HHQ by strain PA14 was performed in triplicate in 14-mL round bottom falcon tubes containing 3-mL cultures in LB medium. Tubes were incubated at 37° C. in an orbital shaker at 225 rpm. Cultures were inoculated with 15-hour culture in LB in order to obtain a starting OD600=0.05, with or without inhibitors added. For PQS and HHQ analysis, a 20 μl aliquot was taken at time points as indicated. Each sample was diluted with 180 μL of methanol containing the internal standard (100 μM of d^4-PQS or d^4-HHQ) and 2% acetic acid. The solution was then vertexed and centrifuged at 13,000 g for 5 minutes, and the supernatant was transferred to a 96-well plates for LC-MS/MS analysis. Bacterial growth was measured by recording OD600 at 20 h to provide the data in FIG. 7A.
Liquid chromatography tandem mass spectrometry (LC-MS/MS) was carried out on an Agilent Technologies 6410 triple quad LC-MS/MS system with autosampler in electrospray ionization (ESI) mode, with an Agilent Zorbax Eclipse XDB-C18 reverse phase column (50×4.6 mm, 5 μm) using a flow rate of 0.5 mL/minute and an isocratic mobile phase of 60% CH3CN in 0.1% aqueous formic acid over 5 minutes. Positive electrospray in MRM mode was employed to quantify PQS and HHQ, using the ion transitions HHQ 244 to 159, d^4-HHQ 248 to 163, PQS 260 to 175, and d^4-PQS 264 to 179; shown in Table E3.
PqsA inhibitors 1-5 were evaluated for their ability to inhibit HHQ and PQS quinolone production in P. aeruginosa strain PA14 (FIG. 6). HHQ and PQS concentrations were determined by LC-MS/MS quantitation relative to deuterated internal standards. 6-Fluoroanthranilate (6FABA), a substrate analogue reported previously to inhibit quinolone production at millimolar concentrations, was used as a positive control. Compounds were initially tested at 1.5 mM concentration, and HHQ and PQS were quantified at 8 and 20 hours, respectively. These time points were selected based on an initial time course study of quinolone production in the absence of inhibitors, with HHQ or PQS production peaking at these respective time points. […] This could be due to differences in cell penetration, stability, and/or target specificity. Finally, because inhibitors of the quinolone quorum sensing pathway should not impact bacterial growth, we confirmed that none of the six inhibitors above inhibited growth over 20 h (FIG. 7A). Encouraged by the ability of anthranilyl-AMS (1) and anthranilyl-AMSN (2) to inhibit HHQ and PQS quinolone production, the activity of these two inhibitors and 6FABA were investigated in greater detail. In untreated controls, HHQ and PQS production peaked at 8 and 20 hours, respectively. Previously reported time course studies have similarly shown that HHQ levels peak at 6-8 hours while PQS levels continue to rise. See, e.g., Deziel et al. (2004) Proc. Natl. Acad. Sci. U.S.A 101, 1339; Kesarwani et al. (2011) PLoS Pathog. 7, e1002192. All three inhibitors were able to decrease quinolone production in a dose- and time-dependent manner (FIG. 2A). […] Such a perturbation might still be sufficient to impact P. aeruginosa virulence in vivo. […] See, e.g., Lesic et al. (2007) PLoS Pathog. 3, e126.

Another assay deals with P. aeruginosa PqsA (Pseudomonas aeruginosa, UniProt Q9I4X3). The assay is described as follows: PqsA inhibition, spectrophotometric assay with recombinant PqsA (anthranilyl-CoA formation at 365 nm). In kind it is biochemical. The settings on record: for PqsA inhibition, potency in words: short time scale of the assay; for IC50: IC50 for inhibition of P. aeruginosa PqsA; for inhibition at 10 µM: read-out: % inhibition at 10 μM of P. aeruginosa PqsA, 10 μM. Here is the method: PqsA inhibitors were evaluated using a quantitative spectrophotometric assay with recombinant PqsA, detecting formation of anthranilyl-CoA at 365 nm. See, e.g., Coleman et al. (2008) J. Bacteriol. 190, 1247. […] See, e.g., Morrison et al. Biochim. Biophys. Acta, Enzymol. 185, 269-286; Williams et al. (1979) Methods Enzymol. 63, 437. […] See, e.g., Qiao et al. (2007) J. Am. Chem. Soc. 129, 6350.
Reactions were performed at 37° C. in a 0.5 mL volume in a Varian Cary 100 UV-visible spectrophotometer with Cary WinUV software. Reaction mixtures contained 100 mM HEPES, pH 8.0, 0.2 mM dithiothreitol, 2 mM MgCl2, ˜3.3 μg PqsA protein (˜60 nM final), and depending on which substrate varied, 1 mM ATP (disodium salt), 0.5 mM coenzyme A (tri-lithium salt), 0.5 mM sodium anthranilate, and inhibitor (usually as a DMSO stock solution). Reactions were blanked and preincubated with all components except anthranilate at 37° C. for 1 min, then initiated by addition of anthranilate. Formation of anthraniloyl-CoA was monitored ance at 365 nm (ε=5.5 mM−1 cm−1) for 1 min. Data were analyzed using GraphPad Prism 6 software.

P. aeruginosa PqsA, sequence (Q9I4X3 whole entry): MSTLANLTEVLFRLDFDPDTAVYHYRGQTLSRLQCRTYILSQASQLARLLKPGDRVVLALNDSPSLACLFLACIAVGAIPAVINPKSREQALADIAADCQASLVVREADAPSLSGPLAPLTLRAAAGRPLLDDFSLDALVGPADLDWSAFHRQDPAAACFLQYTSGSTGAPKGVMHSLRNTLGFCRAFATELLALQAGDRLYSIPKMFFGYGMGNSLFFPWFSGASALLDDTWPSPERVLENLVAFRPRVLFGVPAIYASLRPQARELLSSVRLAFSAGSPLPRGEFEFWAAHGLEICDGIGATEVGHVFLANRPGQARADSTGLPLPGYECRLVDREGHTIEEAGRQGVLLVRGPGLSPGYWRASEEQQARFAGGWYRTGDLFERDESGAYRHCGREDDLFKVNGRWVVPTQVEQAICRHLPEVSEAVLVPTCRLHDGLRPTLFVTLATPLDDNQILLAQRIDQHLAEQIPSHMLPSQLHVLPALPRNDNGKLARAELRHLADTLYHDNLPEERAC

On to `Nc1ncnc2c1ncn2[C@@H]1O[C@H](COS(=O)(=O)NC(=O)c2ccccc2)[C@@H](O)[C@H]1O` [Benzoyl-AMS, reference compound], for which the “inhibition of quinolone production, in words” value in assay [1] is reported as “less potent inhibitors of quinolone production”. The “PqsA inhibition, potency in words” value at P. aeruginosa PqsA is listed as “somewhat weaker inhibitor”. `Nc1ccccc1C(=O)NS(=O)(=O)OC[C@H]1O[C@@H](n2cnc3c(N)ncnc32)[C@H](O)[C@@H]1O` [DST-Pqs1]: on P. aeruginosa PqsA, the IC50 (in general, the concentration that gives 50% inhibition) came out at 0.309 µM and the inhibition (as a rule, the change of the read-out against control, counted positive when it falls) at 10 µM turned out to be 98.6 ± 2.3%. For the compound `Nc1ccccc1C(=O)NS(=O)(=O)NC[C@H]1O[C@@H](n2cnc3c(N)ncnc32)[C@H](O)[C@@H]1O` [DST-Pqs2], on P. aeruginosa PqsA, the IC50 is 0.213 µM and the inhibition at 10 µM is 100%. In the case of `Nc1ncnc2c1ncn2[C@@H]1O[C@H](COS(=O)(=O)NC(=O)c2cccnc2Cl)[C@@H](O)[C@H]1O` [DST-Pqs8], the inhibition at 10 µM on P. aeruginosa PqsA turned out to be 10.3 ± 5.3%. Same read-out and setting: for `Nc1cc2ccccc2cc1C(=O)NS(=O)(=O)OC[C@H]1O[C@@H](n2cnc3c(N)ncnc32)[C@H](O)[C@@H]1O` [DST-Pqs9] the value was less than 1%. Regarding `Nc1cc(C(F)(F)F)ccc1C(=O)NS(=O)(=O)OC[C@H]1O[C@@H](n2cnc3c(N)ncnc32)[C@H](O)[C@@H]1O` [DST-Pqs10], at P. aeruginosa PqsA, the inhibition at 10 µM came to 1.1 ± 2.6%. Take `Nc1cc(F)ccc1C(=O)NS(=O)(=O)OC[C@H]1O[C@@H](n2cnc3c(N)ncnc32)[C@H](O)[C@@H]1O` [DST-Pqs11]: at P. aeruginosa PqsA, the IC50 is 0.107 µM and the inhibition at 10 µM is 100%. For `Nc1cccc(F)c1C(=O)NS(=O)(=O)OC[C@H]1O[C@@H](n2cnc3c(N)ncnc32)[C@H](O)[C@@H]1O` [DST-Pqs12], in that order: 0.516 µM and 100%. For `Nc1c(Cl)cccc1C(=O)NS(=O)(=O)OC[C@H]1O[C@@H](n2cnc3c(N)ncnc32)[C@H](O)[C@@H]1O` [DST-Pqs13], in that order: 1.23 µM and 97.2 ± 1.2%. For the compound `Nc1cc(Cl)ccc1C(=O)NS(=O)(=O)OC[C@H]1O[C@@H](n2cnc3c(N)ncnc32)[C@H](O)[C@@H]1O` [DST-Pqs14], on P. aeruginosa PqsA, the IC50 was found to be 0.828 µM. On to `Nc1ccc(Cl)cc1C(=O)NS(=O)(=O)OC[C@H]1O[C@@H](n2cnc3c(N)ncnc32)[C@H](O)[C@@H]1O` [DST-Pqs15], for which, on P. aeruginosa PqsA, the IC50 is 1.53 µM and the inhibition at 10 µM was 97.3 ± 0.9%. As for `Nc1cccc(Cl)c1C(=O)NS(=O)(=O)OC[C@H]1O[C@@H](n2cnc3c(N)ncnc32)[C@H](O)[C@@H]1O` [DST-Pqs16], on P. aeruginosa PqsA, the IC50 is 0.552 µM and the inhibition at 10 µM worked out at 100%. For the compound `Nc1ccccc1C(=O)NS(=O)(=O)OC[C@H]1O[C@@H](n2cnc3c(NC4CC4)ncnc32)[C@H](O)[C@@H]1O` [DST-Pqs17], the inhibition at 10 µM on P. aeruginosa PqsA was determined as 1.3 ± 3%. On the same count and under the same terms, for `CN(C)c1ncnc2c1ncn2[C@@H]1O[C@H](COS(=O)(=O)NC(=O)c2ccccc2N)[C@@H](O)[C@H]1O` [DST-Pqs18] the value was 21.3 ± 1.9%.

As to `CNc1ncnc2c1ncn2[C@@H]1O[C@H](COS(=O)(=O)NC(=O)c2ccccc2N)[C@@H](O)[C@H]1O` [DST-Pqs19], at P. aeruginosa PqsA, the IC50 came out at 39.2 µM and the inhibition at 10 µM is 32.1 ± 2.8%.

On to `NCc1ccccc1Nc1nc(N)c2ncn([C@@H]3O[C@H](COS(=O)(=O)NC(=O)c4ccccc4N)[C@@H](O)[C@H]3O)c2n1` [DST-Pqs27], for which, on P. aeruginosa PqsA, the IC50 was found to be 5.24 µM and the inhibition at 10 µM was found to be 84.8 ± 1.5%.

As to `NCc1ccc(Nc2nc(N)c3ncn([C@@H]4O[C@H](COS(=O)(=O)NC(=O)c5ccccc5N)[C@@H](O)[C@H]4O)c3n2)cc1` [DST-Pqs28], on P. aeruginosa PqsA, the % inhibition (usually the percentage by which the read-out fell short of the control) at 10 μM of P. aeruginosa PqsA is given as 9.5 ± 3.9%. Regarding `NCc1ccc(Nc2nc(N)c3ncn([C@@H]4O[C@H](COS(=O)(=O)NC(=O)c5ccccc5N)[C@@H](O)[C@H]4O)c3n2)cc1` [DST-Pqs29], the “% inhibition at 10 μM of P. aeruginosa PqsA” value on P. aeruginosa PqsA was 76.0 ± 1.3%. As for `Nc1ncnc2c1ncn2[C@@H]1O[C@H](COS(=O)(=O)NC2(c3ccccc3F)COC2)[C@@H](O)[C@H]1O` [DST-Pqs30], at P. aeruginosa PqsA, the inhibition at 10 µM is less than 1%. Still for that read-out and setting: with `Nc1ncnc2c1ncn2[C@@H]1O[C@H](COS(=O)(=O)NC2(c3ccccc3O)COC2)[C@@H](O)[C@H]1O` [DST-Pqs31] the figure was less than 1%; with `Nc1ncnc2c1ncn2[C@@H]1O[C@H](COS(=O)(=O)NC2(c3ccccc3)COC2)[C@@H](O)[C@H]1O` [DST-Pqs32], 2.3 ± 0.9%; with `Nc1ccccc1C1(NS(=O)(=O)OC[C@H]2O[C@@H](n3cnc4c(N)ncnc43)[C@H](O)[C@@H]2O)COC1` [DST-Pqs33], 4.6 ± 2.9%. Take `Nc1ccccc1C(=O)NS(=O)(=O)OC[C@H]1O[C@@H](n2cnc3c(N)ncnc32)[C@H](N)[C@@H]1N` [JI-C-2013-189]: at P. aeruginosa PqsA, the IC50 was 7.22 µM and the inhibition at 10 µM came out at 77.8 ± 0.2%. As to `Nc1ccccc1C(=O)NS(=O)(=O)OC[C@H]1O[C@@H](n2cnc3c(N)nc(Nc4ccccc4)nc32)[C@H](O)[C@@H]1O` [JI-C-2013-451], on P. aeruginosa PqsA, the half-inhibitory concentration (IC50) amounted to 2.07 µM and the inhibition at 10 µM amounted to 95.1 ± 0.2%. Turning to `Nc1ccccc1C(=O)NS(=O)(=O)OC[C@H]1O[C@@H](n2cnc3c(N)nc(-c4ccccc4)nc32)[C@H](O)[C@@H]1O` [JI-C-2013-454], on P. aeruginosa PqsA, the IC50 was determined as 25 µM and the inhibition at 10 µM is 42.7 ± 0.2%. As to `Nc1ccccc1C(=O)NS(=O)(=O)OC[C@H]1O[C@@H](n2cnc3c(N)nc(C#Cc4ccccc4)nc32)[C@H](O)[C@@H]1O` [JI-C-2013-456], on P. aeruginosa PqsA, the IC50 was 1.46 µM and the inhibition at 10 µM was 95.9 ± 0.4%.

Consider `Nc1ccccc1C(=O)NS(=O)(=O)OC[C@H]1O[C@@H](n2cnc3c(N)ncnc32)C[C@@H]1O` [JI-C-2014-008], for which, at P. aeruginosa PqsA, the IC50 is 0.444 µM and the inhibition at 10 µM is 99.8 ± 0.2%.

`Nc1ccccc1C(=O)NS(=O)(=O)OC[C@@H]1CC[C@H](n2cnc3c(N)ncnc32)O1` [JI-C-2014-025]: at P. aeruginosa PqsA, the IC50 was determined as 5 µM and the inhibition at 10 µM was 91.2 ± 0.9%. As to `Nc1ccccc1/C=C/S(=O)(=O)NC[C@H]1O[C@@H](n2cnc3c(N)ncnc32)[C@H](O)[C@@H]1O` [compound 6, Anthranilyl-AVSN], the “PqsA inhibition, potency in words” value on P. aeruginosa PqsA is on record as “not as effective”. With `Nc1ncnc2c1ncn2[C@@H]1O[C@H](CNS(=O)(=O)/C=C/c2ccccc2O)[C@@H](O)[C@H]1O` [compound 7, Salicyl-AVSN, reference compound], the “PqsA inhibition, potency in words” value at P. aeruginosa PqsA is given as “not as effective”. As to `Nc1ncnc2c1ncn2[C@@H]1O[C@H](COS(=O)(=O)NC(=O)c2ccccc2O)[C@@H](O)[C@H]1O` [salicyl-AMS, Salicyl-AMS, reference compound], the “inhibition of quinolone production, in words” value in assay [1] is “less potent inhibitors of quinolone production”. Further, the “PqsA inhibition, potency in words” value on P. aeruginosa PqsA is “potency similar to that of the cognate anthranilyl inhibitors”.

(Values after US10874686B2, “Anthranilyl-adenosinemonosulfamate analogs and uses thereof” (Memorial Sloan-Kettering Cancer Center, priority 2015, dated 2020).)
